Where “and” joins values, the source holds several entries; their conditions need not be identical. Identical values can stand only once.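 Five concentrations, 48 hours, 96-well plates. GI50 is the concentration that inhibits growth by half. TGI: concentration producing complete growth inhibition.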
Columns and labels:
Experiment in all cases: DTP human tumour cell line panel, 48 h
[1] = tested on: ACHN renal
[2] = tested on: EKVX NSCLC
[3] = tested on: KM12 colon
[4] = tested on: M14 melanoma
[5] = tested on: MOLT-4 leukemia
[6] = tested on: OVCAR-3 ovarian
[7] = tested on: OVCAR-8 ovarian
[8] = tested on: SF-268 CNS
[9] = tested on: SR leukemia
[10] = tested on: UACC-62 melanoma

| Structure (SMILES) | TGI [1] | TGI [2] | TGI [3] | TGI [4] | TGI [5] | TGI [6] | TGI [7] | TGI [8] | TGI [9] | TGI [10] | GI50 [3] | GI50 [5] | GI50 [6] | GI50 [8] | GI50 [1] | GI50 [2] | GI50 [4] | GI50 [7] | GI50 [9] | GI50 [10] |
| --- | --- | --- | --- | --- | --- | --- | --- | --- | --- | --- | --- | --- | --- | --- | --- | --- | --- | --- | --- | --- |
| C=CCC(C(=O)O)c1ccccc1 (configuration not stated) | > 100 µM | > 100 µM | > 100 µM | > 100 µM | > 100 µM | > 100 µM | > 100 µM | > 100 µM | > 100 µM | > 100 µM | – | – | – | – | – | – | – | – | – | – |
| Cc1ccc(NC(=O)CC(=O)n2nc(-c3ccccc3)c(N=Nc3ccccc3Cl)c2-c2ccccc2)cc1 | > 100 µM | > 100 µM | > 100 µM | > 100 µM | > 100 µM | > 100 µM | > 100 µM | > 100 µM | > 100 µM | > 100 µM | > 100 µM | > 100 µM | > 100 µM | > 100 µM | – | – | – | – | – | – |
| COc1ccc(C2=C(c3ccc(OC)c(OC)c3)C(=O)OC2)cc1 | > 100 µM | > 100 µM | 3.34 µM | > 36.4 µM | – | 0.389 µM | > 100 µM | > 91.7 µM | 0.0192 µM | 13.2 µM | – | < 0.0208 µM | 0.177 µM | 0.106 µM | < 0.0135 µM | 1.95 µM | < 0.01 µM | 0.0451 µM | < 0.01 µM | < 0.01 µM |
| O=C(Nc1ccc(F)cc1F)c1cc(Br)ccc1O | 8.4 µM | 9.73 µM | 10.1 µM | 6.99 µM | 12.2 µM | > 100 µM | > 100 µM | 38.7 µM | > 100 µM | 3.82 µM | 2.99 µM | 2.96 µM | 2.89 µM | 2.78 µM | 2.5 µM | 2.23 µM | 1.91 µM | 3.01 µM | 3.05 µM | 1.23 µM |
| CC1(C)CC(n2cnc(-c3ccc(F)cc3)c2-c2ccnc(N)n2)CC(C)(C)N1 | > 25 µM | > 25 µM | > 25 µM | > 25 µM | > 25 µM | > 25 µM | > 25 µM | > 25 µM | > 25 µM | > 25 µM | 18.1 µM | 17.4 µM | > 25 µM | 18.7 µM | 10.3 µM | > 25 µM | > 25 µM | 15.6 µM | > 19.3 µM | > 25 µM |
| Cc1cccc(C)c1NC(=O)CCc1nnc2s/c(=C\c3ccc(Cl)cc3)c(=O)n12 | > 100 µM | > 100 µM | > 100 µM | > 100 µM | > 100 µM | > 100 µM | > 100 µM | > 100 µM | > 100 µM | > 100 µM | – | – | – | – | – | – | – | – | – | – |
| NC(=N\N=C/c1cccc([N+](=O)[O-])c1)/C(N)=N\N=C/c1cccc([N+](=O)[O-])c1 | > 100 µM | > 100 µM | > 100 µM | > 100 µM | > 100 µM | > 100 µM | > 100 µM | > 100 µM | > 100 µM | > 100 µM | > 100 µM | > 100 µM | > 100 µM | > 100 µM | > 100 µM | > 100 µM | > 100 µM | > 100 µM | > 100 µM | > 100 µM |
| C[C@]12CC[C@H](OCCC#N)CC1=CC[C@@H]1C2CC[C@]2(C)/C(=N/OCCC#N)CCC12 (some centres not stated) | > 100 µM | > 100 µM | > 100 µM | > 100 µM | > 100 µM | > 100 µM | > 100 µM | > 100 µM | > 100 µM | > 100 µM | – | – | – | – | – | – | – | – | – | – |
| C=CCN1C=CC(=O)[C@H](O[Si](C)(C)C(C)(C)C)[C@@H]1/C=C/c1ccccc1 | 29.2 µM | 40.7 µM | 28.7 µM | 27.5 µM | 28.8 µM | 27.8 µM | > 100 µM | 30.9 µM | 26.1 µM | 26.7 µM | 13.1 µM | 10.7 µM | 14 µM | 15.1 µM | 15.5 µM | 14 µM | 13.2 µM | 30.6 µM | 5.21 µM | 12.1 µM |
| CC[Si](CC)(CC)OC[C@]1([C@@H]2COC(C)(C)O2)CC=CC(=O)O1 | > 100 µM | > 100 µM | > 100 µM | > 100 µM | > 100 µM | > 100 µM | 91.8 µM | > 100 µM | 95.1 µM | > 100 µM | 34.3 µM | 31.7 µM | 32.6 µM | 41.5 µM | 42.8 µM | 31.5 µM | 33 µM | 26.4 µM | 23 µM | 25.6 µM |
| Cc1occc1C(=S)Nc1ccc(Cl)c(/C=N/OC(C)C)c1 | 51 µM | 59 µM | 53.6 µM | 57.9 µM | > 57.6 µM | 30.9 µM | > 55.4 µM | > 62.2 µM | > 59.9 µM | 29.2 µM | – | – | – | – | – | – | – | – | – | – |
| CCOC(=O)NC(=O)c1cn(CCCOC(=O)CCCCCCCCCCC(=O)OCCCn2cc(C(=O)NC(=O)OCC)c(=O)n(C)c2=O)c(=O)n(C)c1=O | > 100 µM | > 100 µM | > 100 µM | > 100 µM | > 100 µM | > 100 µM | > 100 µM | > 100 µM | > 100 µM | > 100 µM | – | – | – | – | – | – | – | – | – | – |
| C=C1C(=O)[C@@]23CC1C(O)[C@@H](OC(C)=O)[C@@H]2C1(C)C(OC(C)=O)C[C@@H](OC(C)=O)C(C)(C)[C@@H]1C[C@H]3OC(C)=O (some centres not stated) | > 10 µM and 16.6 µg/mL | > 10 µM and 35.6 µg/mL | > 10 µM and 17.1 µg/mL | > 10 µM and 7.15 µg/mL | 4.1 µM and 4.03 µg/mL | > 10 µM and 8.34 µg/mL | > 10 µM and 20.1 µg/mL | > 10 µM and 28.3 µg/mL | 4.6 µM and 1.63 µg/mL | 3.53 µg/mL | > 10 µM and 5.94 µg/mL | 1.71 µM and 1.28 µg/mL | > 10 µM and 3.93 µg/mL | > 10 µM and 6.82 µg/mL | 4.26 µg/mL | > 10 µM and 16.8 µg/mL | 2.33 µM and 2.68 µg/mL | 3.37 µM and 3.94 µg/mL | 1.7 µM and 0.255 µg/mL | 1.77 µg/mL |
| NC(=O)c1ccc2c(-c3ccnc(NCCCO)n3)c(-c3ccc(F)cc3)nn2c1 | > 25 µM | > 25 µM | > 25 µM | > 25 µM | > 25 µM | > 25 µM | > 25 µM | > 25 µM | > 25 µM | > 25 µM | > 25 µM | > 25 µM | 18.6 µM | > 22.2 µM | > 17.1 µM | > 25 µM | > 25 µM | > 25 µM | > 25 µM | > 25 µM |
